Source: patent publication US10350230B2, “Use of albiflorin or pharmaceutically acceptable salt for prevention and/or treatment of irritable bowel syndrome” (priority 2015, dated 2019)
Structures can show the parent of a compound that is named as a salt.

Tests used:
[1] = test system: diarrhea model of irritable bowel syndrome induced by restraint stress in rats; test: Diarrhea of irritable bowel syndrome induced by restraint stress in rat; format: in vivo; details: for Number of fecal pellets excreted in 1 h / Time for excreting glass ball: 7 days, restraint stress rats; for number of fecal pellets excreted (result in words): high-, mid- and low-dose groups, compared with model control group
From the text: The restraint stress stimulus method was used to induce abnormal defecation in rats, thereby leading to increase of colon smooth muscle movement and accelerating intestinal transport.
The animals were randomly divided into 10 groups as follows: normal control group; model control group (normal saline); high-, mid- and low-dose groups of test drugs (albiflorin and paeoniflorin); and positive control groups (loperamide hydrochloride (Imodium™) and trimebutine maleate (Yuanshengliwei™)). Gavage administration was performed on each group once a day, for 7 consecutive days.
The rats were deprived of food for 24 hours before the test. Half an hour after the last administration, the rats were anesthetized with ethyl ether. After the rat fainted away, its front shoulder, front upper limbs and chest were bound with scotch tape to prevent the front upper limbs from scratching its face, but the movement of the front upper limbs was not limited. A glass ball with a diameter of 3 mm was placed into the rectum 3 cm away from anus. The rats were moved rapidly into cages which were padded with clean filter paper. Timing started when the rat woke up, and the binding time was one hour. The number of fecal pellets excreted by the rat in one hour and the time for excreting glass ball were recorded. Statistical analysis of data was performed using t-test for intergroup comparison.

[2] = test system: chronic unpredictable stress (CUS) model in rats; test: Chronic stress depression model in rats: sucrose aqueous solution-drinking test; details: for Sugar aqueous solution preference: 38 days, CUS rats, Means±SEM; for sugar aqueous solution preference of rats (result in words): compared with the model group
[3] = test system: chronic unpredictable stress (CUS) model in rats; test: Chronic stress depression model in rats: open field test; details: for Number of times of horizontal movement in open field / Number of times of vertical movement in open field: CUS rats, 5 min, Means±SEM; for number of times of horizontal movement of rats in open field (result in words) / number of times of vertical movement of rats in open field (result in words): compared with the model group
[4] = test system: mice in light-dark shuttle box; test: Light-dark shuttle box test in mice (anti-anxiety test); format: in vivo; details: for Number of times of returning from dark box back to light box: 7 days, mice; for number of times of returning from the dark box back to the light box (result in words): albiflorin high-, mid- and low-dose groups, diazepam group, compared with normal control group
Protocol: Mice were randomly divided into 5 groups, i.e. high-dose group of albiflorin (14 mg/kg/d), mid-dose group of albiflorin (7 mg/kg/d), low-dose group of albiflorin (3.5 mg/kg/d), diazepam group (2.5 mg/kg/d), and normal control group. Gavage administration was performed once a day, for 7 consecutive days. During the administration, animals had free access to food and water. The test was carried out 1 hour after the administration on Day 8.
Within the light-dark shuttle box (44 cm×21 cm×21 cm), the dark box accounts for one third thereof, with a cover on the top; and the light box accounts for two thirds thereof, with illumination brightness; and there is a hole between the two boxes for animal to pass through. During the test, mice were placed in the center of the light box, back to the dark box, and then observed. The number of times of entering into the dark box followed by returning to the light box in mice was counted, which was used as an index for the evaluation of anti-anxiety effect of a drug.
8.1.5 Statistical Analysis The data were expressed as X±SD, and the experimental results were analyzed by one-way ANOVA, using SPSS 11.5 statistical software.

[5] = test system: sleep time of mice induced by threshold dose of pentobarbital sodium; test: Sleep induced by pentobarbital sodium in mice; format: in vivo; details: for Sleep time: 60 min before pentobarbital sodium 50 mg/kg i.p., mice; for sleep time of mice induced by threshold dose of pentobarbital sodium (result in words): compared with normal saline group
Protocol: Mice with a body weight of 18-22 g, male and female, were selected. Mice with a single-sex were used in each test. The mice were randomly divided into groups as follows: albiflorin group, diazepam group (positive control group) and control group (normal saline). There were 10 mice in each group. 60 minutes after the gavage administration, threshold dose of pentobarbital sodium (50 mg/kg) was injected intraperitoneally. The disappearance of righting reflex was recorded as time to fall asleep, and the period from the righting reflex being disappeared until the righting reflex being recovered was recorded as sleep duration time. Compared with the control group, the significance was determined by time t test.

[6] = test system: small intestine spasm models induced by Neostigmine in mice; test: Abdominal pain of irritable bowel syndrome in mice (Neostigmine small intestine spasm, carbon powder propulsion); format: in vivo; details: for propulsive distance and propulsive rate of carbon powder suspension in mice intestine tract stimulated by Neostigmine (result in words): high-, mid- and low-dose groups, compared with pathology modeling control group; for Propulsive distance / Propulsive rate: 7 days, Neostigmine mice, carbon powder
Protocol: All the animals were deprived of food for 12 hours before the test. […] After 15 minutes, gavage administration of carbon powder paste was performed on all groups (0.2 ml/10 g body weight, each dosage contains 0.05 g of carbon powder and 0.02 g of carboxymethyl cellulose). The animals were killed 20 minutes later. The propulsive length of carbon powder in small intestine and the total length of small intestine were measured respectively, and then the propulsive rate of carbon powder was calculated. Statistical analysis of data was performed using t-test for intergroup comparison.
The propulsive distance: to measure the propulsive length of carbon powder in small intestine.
Propulsive rate (%)=(propulsive length/total length of small intestine)×100%.

Row | Molecule | number of times of returning from the dark box back to the light box (result in words) [4] | sleep time of mice induced by threshold dose of pentobarbital sodium (result in words) [5] | propulsive distance and propulsive rate of carbon powder suspension in mice intestine tract stimulated by Neostigmine (result in words) [6] | Propulsive distance ([6]; high-dose, 14 mg/kg/d gavage) | Propulsive rate ([6]; high-dose, 14 mg/kg/d gavage) | Propulsive distance ([6]; low-dose, 3.5 mg/kg/d gavage) | Propulsive rate ([6]; low-dose, 3.5 mg/kg/d gavage) | Propulsive distance ([6]; mid-dose, 7 mg/kg/d gavage) | Propulsive rate ([6]; mid-dose, 7 mg/kg/d gavage) | number of fecal pellets excreted (result in words) [1] | Number of fecal pellets excreted in 1 h ([1]; high-dose, 9.8 mg/kg/d gavage) | Time for excreting glass ball ([1]; high-dose, 9.8 mg/kg/d gavage) | Number of fecal pellets excreted in 1 h ([1]; low-dose, 2.45 mg/kg/d gavage) | Time for excreting glass ball ([1]; low-dose, 2.45 mg/kg/d gavage) | Number of fecal pellets excreted in 1 h ([1]; mid-dose, 4.9 mg/kg/d gavage) | Time for excreting glass ball ([1]; mid-dose, 4.9 mg/kg/d gavage) | other results
1 | trimebutine maleate |  |  |  |  |  |  |  |  |  |  |  |  |  |  |  |  | Number of fecal pellets excreted in 1 h ([1]; 6.25 mg/kg/d gavage): 3.70 ± 2.26; Time for excreting glass ball ([1]; 6.25 mg/kg/d gavage): 17.80 ± 21.88 min
2 | CNCCC(Oc1ccc(C(F)(F)F)cc1)c1ccccc1 (stereo not shown) [Flx, Fluoxetine, reference compound] |  |  |  |  |  |  |  |  |  |  |  |  |  |  |  |  | Sugar aqueous solution preference ([2]; 10 mg/kg gavage once a day): 70.63 ± 6.86 %; sugar aqueous solution preference of rats (result in words) ([2]; 10 mg/kg long-term gavage): obviously increased; Number of times of horizontal movement in open field ([3]; 10 mg/kg gavage once a day): 90.60 ± 7.72; Number of times of vertical movement in open field ([3]; 10 mg/kg gavage once a day): 20.80 ± 1.93; number of times of horizontal movement of rats in open field (result in words) ([3]; 10 mg/kg long-term gavage): obviously increased; number of times of vertical movement of rats in open field (result in words) ([3]; 10 mg/kg long-term gavage): obviously increased
3 | CN1C(=O)CN=C(c2ccccc2)c2cc(Cl)ccc21 [Diazepam, diazepam, reference compound] | significantly increase | obviously prolong |  |  |  |  |  |  |  |  |  |  |  |  |  |  | Number of times of returning from dark box back to light box ([4]; 2.5 mg/kg/d gavage): 13.6 ± 3.35; Sleep time ([5]; 0.5 mg/kg gavage): 96. ± 14.6 min; Sleep time ([5]; 1 mg/kg gavage): 102.0 ± 16.2 min
4 | CN(C)C(=O)C(CCN1CCC(O)(c2ccc(Cl)cc2)CC1)(c1ccccc1)c1ccccc1 [Loperamide hydrochloride, loperamide hydrochloride] |  |  |  |  |  |  |  |  |  |  |  |  |  |  |  |  | Number of fecal pellets excreted in 1 h ([1]; 0.17 mg/kg/d gavage): 1.40 ± 0.97; Time for excreting glass ball ([1]; 0.17 mg/kg/d gavage): 26.00 ± 28.30 min
5 | C[C@@]12C[C@@]3(O)O[C@@H](O1)[C@]1(COC(=O)c4ccccc4)[C@H]3C[C@@]12O[C@@H]1O[C@H](CO)[C@@H](O)[C@H](O)[C@H]1O [Paeoniflorin, paeoniflorin, reference compound] |  |  | decreased only in high-dose group | 28.80 ± 3.79 cm | 65.64 ± 8.80% | 31.80 ± 3.79 cm | 72.64 ± 4.69% | 31.00 ± 1.93 cm | 71.92 ± 7.51% | only a trend to decrease | 3.71 ± 2.02 | 10.70 ± 16.06 min | 4.10 ± 1.81 | 10.64 ± 15.01 min | 3.96 ± 1.36 | 10.50 ± 14.03 min | 
6 | C[C@]12C[C@@H](O)[C@@H]3C[C@@]1(O[C@@H]1O[C@H](CO)[C@@H](O)[C@H](O)[C@H]1O)[C@@]3(COC(=O)c1ccccc1)C(=O)O2 [Albiflorin] | significantly increase | obviously prolong | decreased obviously | 22.80 ± 4.78 cm | 57.47 ± 10.67 % | 22.10 ± 3.90 cm | 57.05 ± 4.69 % | 20.80 ± 4.64 cm | 54.53 ± 9.39 % | decreased obviously | 2.50 ± 1.27 | 10.60 ± 17.58 min | 2.60 ± 1.84 | 19.90 ± 17.69 min | 1.80 ± 1.48 | 12.00 ± 17.53 min | Sugar aqueous solution preference ([2]; 3.5 mg/kg gavage once a day): 60.04 ± 10.86%; sugar aqueous solution preference of rats (result in words) ([2]; 3.5 mg/kg): did not obviously increase; sugar aqueous solution preference of rats (result in words) ([2]; 7.0 mg/kg and 14.0 mg/kg): obviously increased; Sugar aqueous solution preference ([2]; 7.0 mg/kg gavage once a day): 76.19 ± 5.35 %; Sugar aqueous solution preference ([2]; 14.0 mg/kg gavage once a day): 78.12 ± 4.04 %; Number of times of returning from dark box back to light box ([4]; high-dose, 14 mg/kg/d gavage): 13.9 ± 3.23; Number of times of returning from dark box back to light box ([4]; low-dose, 3.5 mg/kg/d gavage): 10.6 ± 3.42; Number of times of returning from dark box back to light box ([4]; mid-dose, 7 mg/kg/d gavage): 12.1 ± 3.51; Number of times of horizontal movement in open field ([3]; 3.5 mg/kg gavage once a day): 95.40 ± 9.23; Number of times of vertical movement in open field ([3]; 3.5 mg/kg gavage once a day): 20.50 ± 1.81; number of times of horizontal movement of rats in open field (result in words) ([3]; 3.5 mg/kg): obviously increased; number of times of horizontal movement of rats in open field (result in words) ([3]; 7.0 mg/kg and 14.0 mg/kg): can not obviously increase; Number of times of horizontal movement in open field ([3]; 7.0 mg/kg gavage once a day): 98.20 ± 8.61; Number of times of vertical movement in open field ([3]; 7.0 mg/kg gavage once a day): 21.10 ± 2.17; Number of times of horizontal movement in open field ([3]; 14.0 mg/kg gavage once a day): 104.10 ± 11.11; Number of times of vertical movement in open field ([3]; 14.0 mg/kg gavage once a day): 22.10 ± 2.66; number of times of vertical movement of rats in open field (result in words) ([3]; 3.5-14.0 mg/kg): obviously increased; Sleep time ([5]; 7 mg/kg gavage): 90.2 ± 15.1 min; Sleep time ([5]; 14 mg/kg gavage): 98.8 ± 12.4 min
